The source of these data is publication PMC8792198 (Journal of pharmaceutical sciences, 2021).

“And” between values parts separate entries of the source, which are not always exact repeats. Equal values may be shown once.

Data set [1] has as its system placental BM vesicles. The following applies: cited from earlier work.
The target of another data set is OATP5A1 (Homo sapiens, UniProt Q9H2Y9). In words: Uptake into HEK293 cells stably overexpressing OATP5A1. The class given is in vitro ADME. The following applies: for transport by OATP5A1 in HEK293-OATP5A1 cells: pH 7.4.
Chain of OATP5A1 (Q9H2Y9 whole entry): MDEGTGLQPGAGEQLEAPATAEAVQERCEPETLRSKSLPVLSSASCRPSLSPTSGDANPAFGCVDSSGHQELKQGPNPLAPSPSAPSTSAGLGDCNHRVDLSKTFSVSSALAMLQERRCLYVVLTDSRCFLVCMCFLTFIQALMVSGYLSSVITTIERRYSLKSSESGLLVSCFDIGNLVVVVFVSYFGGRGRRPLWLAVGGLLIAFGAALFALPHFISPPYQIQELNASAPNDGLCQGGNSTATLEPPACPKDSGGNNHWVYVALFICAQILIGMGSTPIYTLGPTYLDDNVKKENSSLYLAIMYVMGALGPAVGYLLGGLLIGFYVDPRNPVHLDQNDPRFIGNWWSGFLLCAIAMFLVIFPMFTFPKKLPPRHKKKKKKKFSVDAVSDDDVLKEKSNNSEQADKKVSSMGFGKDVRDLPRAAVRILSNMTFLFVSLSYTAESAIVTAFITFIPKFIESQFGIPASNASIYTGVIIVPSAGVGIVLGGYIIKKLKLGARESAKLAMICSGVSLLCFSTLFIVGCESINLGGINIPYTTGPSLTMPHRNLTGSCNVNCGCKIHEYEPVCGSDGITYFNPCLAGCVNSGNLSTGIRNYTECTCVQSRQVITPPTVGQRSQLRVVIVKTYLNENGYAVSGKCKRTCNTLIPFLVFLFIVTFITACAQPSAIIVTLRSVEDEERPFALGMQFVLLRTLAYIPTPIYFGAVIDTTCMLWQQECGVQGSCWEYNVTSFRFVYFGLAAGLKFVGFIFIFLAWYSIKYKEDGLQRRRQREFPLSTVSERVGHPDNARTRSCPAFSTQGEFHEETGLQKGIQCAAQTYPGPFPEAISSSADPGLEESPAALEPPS
For data set [2], the target named is T1, OAT4 (Homo sapiens, UniProt Q9NSA0).
T1 sequence (Q9NSA0 1-550): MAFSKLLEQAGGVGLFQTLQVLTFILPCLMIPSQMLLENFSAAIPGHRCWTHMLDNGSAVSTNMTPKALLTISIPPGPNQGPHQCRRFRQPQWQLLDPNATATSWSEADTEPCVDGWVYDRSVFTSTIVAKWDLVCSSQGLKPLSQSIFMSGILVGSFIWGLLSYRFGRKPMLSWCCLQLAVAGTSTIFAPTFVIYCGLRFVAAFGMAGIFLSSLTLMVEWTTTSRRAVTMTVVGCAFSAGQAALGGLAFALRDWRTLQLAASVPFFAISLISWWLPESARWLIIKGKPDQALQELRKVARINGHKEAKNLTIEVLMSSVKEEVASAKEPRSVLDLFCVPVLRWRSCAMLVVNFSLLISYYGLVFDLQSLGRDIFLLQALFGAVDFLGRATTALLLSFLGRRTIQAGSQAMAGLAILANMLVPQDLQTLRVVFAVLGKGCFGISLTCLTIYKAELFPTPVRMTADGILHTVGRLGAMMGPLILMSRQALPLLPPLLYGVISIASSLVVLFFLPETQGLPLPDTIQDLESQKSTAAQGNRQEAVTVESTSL
In words: Effect of E3S on OAT4-mediated uptake of pravastatin. The class given is in vitro ADME. The following applies: E3S (200 μM), 2 μM pravastatin.

Data set [3] addresses T2, OATP2A1 (Homo sapiens, UniProt Q92959). The following applies: 2 μM pravastatin.
The next data set has as its target T3, OATP1A2 (Homo sapiens, UniProt P46721).
T3 sequence (P46721 1-670): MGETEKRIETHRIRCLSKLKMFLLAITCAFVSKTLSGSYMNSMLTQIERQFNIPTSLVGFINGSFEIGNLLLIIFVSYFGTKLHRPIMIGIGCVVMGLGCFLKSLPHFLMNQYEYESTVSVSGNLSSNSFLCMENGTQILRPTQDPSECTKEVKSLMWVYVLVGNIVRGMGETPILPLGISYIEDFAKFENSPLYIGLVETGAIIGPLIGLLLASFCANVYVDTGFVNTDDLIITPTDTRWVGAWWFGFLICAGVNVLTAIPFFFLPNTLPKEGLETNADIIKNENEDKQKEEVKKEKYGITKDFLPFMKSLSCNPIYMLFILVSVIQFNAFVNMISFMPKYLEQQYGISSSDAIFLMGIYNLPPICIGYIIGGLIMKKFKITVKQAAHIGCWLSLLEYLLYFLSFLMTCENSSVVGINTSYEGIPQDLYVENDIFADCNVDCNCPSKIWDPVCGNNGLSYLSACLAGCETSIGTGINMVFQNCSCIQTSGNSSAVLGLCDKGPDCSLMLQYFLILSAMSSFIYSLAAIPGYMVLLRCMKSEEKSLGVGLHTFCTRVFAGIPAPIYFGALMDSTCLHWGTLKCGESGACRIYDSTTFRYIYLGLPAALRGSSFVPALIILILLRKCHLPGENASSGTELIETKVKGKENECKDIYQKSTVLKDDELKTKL
In words: Uptake into HEK293 cells transiently overexpressing OATP1A2. Type of data set: in vitro ADME.

Data set [4] has as its target T1, OAT4. In words: OAT4-mediated efflux of preloaded pravastatin from T-REx-OAT4-293 cells. The class given is in vitro ADME.
The target in another data set is T4, OATP2B1 (Homo sapiens, UniProt O94956).
T4 sequence (O94956 1-709): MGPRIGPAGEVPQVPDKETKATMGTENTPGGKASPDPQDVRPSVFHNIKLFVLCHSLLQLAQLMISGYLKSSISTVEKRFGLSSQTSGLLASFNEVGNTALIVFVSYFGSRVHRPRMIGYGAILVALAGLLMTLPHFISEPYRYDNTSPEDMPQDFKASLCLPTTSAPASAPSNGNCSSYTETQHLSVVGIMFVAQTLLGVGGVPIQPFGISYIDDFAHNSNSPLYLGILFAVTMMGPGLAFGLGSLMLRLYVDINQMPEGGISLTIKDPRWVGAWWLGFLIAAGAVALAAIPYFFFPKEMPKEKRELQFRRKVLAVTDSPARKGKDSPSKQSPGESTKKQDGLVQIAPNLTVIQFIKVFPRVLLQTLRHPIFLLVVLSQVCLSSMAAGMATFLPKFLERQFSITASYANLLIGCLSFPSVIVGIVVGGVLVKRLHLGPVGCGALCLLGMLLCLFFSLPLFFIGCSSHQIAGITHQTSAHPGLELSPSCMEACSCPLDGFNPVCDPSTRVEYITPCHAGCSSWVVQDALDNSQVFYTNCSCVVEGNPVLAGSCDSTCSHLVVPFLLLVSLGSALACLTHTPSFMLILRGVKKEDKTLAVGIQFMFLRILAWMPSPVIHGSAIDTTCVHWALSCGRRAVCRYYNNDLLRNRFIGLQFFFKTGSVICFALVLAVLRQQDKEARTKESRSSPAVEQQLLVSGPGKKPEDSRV

A further data set deals with placental AM vesicles. In words: Glutarate-stimulated uptake of pravastatin by placental AM vesicles. Type of data set: in vitro ADME, human. Particulars: 1 μM [3H]Pravastatin, 37°C.
In data set [5] the target is T2, OATP2A1. In words: Uptake into HEK293 cells stably overexpressing OATP2A1. Type of data set: in vitro ADME. The following applies: 1 min.
Data set [6] deals with placental BM vesicles. In words: Glutarate-stimulated uptake of pravastatin by placental BM vesicles. The class given is in vitro ADME, human.
The test system of data set [7] is OAT4. Particulars: S2 cells expressing OAT4, single component saturation kinetics; ref 20 (Nakagomi-Hagihara et al, 2007); cited from earlier work.
The test system of the next data set is placenta. The following applies: ex vivo placental perfusion; cited from earlier work.
The conditions of data set [8]: pregnant women taking 10 mg daily dose; cited from earlier work.
For data set [9], the target named is T1, OAT4. In words: Uptake into tetracycline-inducible T-REx-OAT4-293 cells. Particulars: for Uptake, Net (transporter-mediated) / Uptake, Transporter-expressing cells: OAT4, 4 μM pravastatin; for Kt / Vmax: OAT4-mediated uptake, physiological pH, 37°C; for Uptake, Control: control cells for OAT4, 4 μM pravastatin.
Where [10] appears, read: OATP1A2-mediated uptake at pH 6.0.
The mark [11] stands for this setting: OATP1A2-mediated uptake, physiological pH, 37°C, 30 s.
Where [12] appears, read: OATP2A1-mediated uptake, physiological pH, 37°C.
[13] abbreviates: GA (glutaric acid preload), 30 s.
Where [14] appears, read: higher concentration range (low affinity).

For `CCCc1nc(C(C)(C)O)c(C(=O)O)n1Cc1ccc(-c2ccccc2-c2nnn[nH]2)cc1` [olmesartan], in the data set with placental BM vesicles [1], the “increase of the uptake into placental BM vesicles by glutarate trans-stimulation” value was 33%.

Consider `O=C1OC2(c3ccc(O)cc3Oc3cc(O)ccc32)c2ccccc21` [fluorescein, sodium fluorescein], for which the “transport by OATP5A1 in HEK293-OATP5A1 cells” value (“transport by OATP5A1” below) on OATP5A1 was “none of the substrates tested, namely pravastatin, E3S, PE2 and fluorescein were found to be transported”.

Regarding `C[C@]12CC[C@H](O)CC1=CC[C@@H]1[C@@H]2CC[C@]2(C)C(=O)[C@H](O)C[C@@H]12` [16α-hydroxydehydroepiandrosterone], the “increase of the uptake into placental BM vesicles by glutarate trans-stimulation” value in the data set with placental BM vesicles [1] is recorded as 56%.

As to `CCCCC[C@H](O)/C=C/[C@H]1[C@H](O)CC(=O)[C@@H]1C/C=C\CCCC(=O)O` [PE2, Prostaglandin-E2], the “transport by OATP5A1” value on OATP5A1 is “none of the substrates tested, namely pravastatin, E3S, PE2 and fluorescein were found to be transported”.

With `C[C@]12CC[C@@H]3c4ccc(OS(=O)(=O)O)cc4CC[C@H]3[C@@H]1CCC2=O` [E3S, estrone-3-sulfate], at OAT4 [2], the “inhibition of OAT4-mediated uptake of pravastatin” value is on record as “complete inhibition”.

For `O=C(O)Cc1ccccc1Nc1c(Cl)cccc1Cl` [diclofenac], the “decrease of the net, OATP2A1-dependent, uptake of pravastatin” value at OATP2A1 [3] (diclofenac 20 μM) is 50%. Besides, the “effect on uptake of pravastatin into OATP2A1-expressing cells” value on OATP2A1 [3] (diclofenac 200 μM) is “did not result in a statistically significant decrease”.

Turning to `CC[C@H](C)C(=O)O[C@H]1C[C@H](O)C=C2C=C[C@H](C)[C@H](CC[C@@H](O)C[C@@H](O)CC(=O)O)[C@H]21` [Pravastatin], the “Uptake, Net (transporter-mediated)” value at OATP1A2 (OATP1A2, 0.75 μM [3H]Pravastatin, 30 s, neutral pH) came out at 1.06 ± 0.32 pmol/mg protein/min; at OATP2B1 (OATP2B1, 0.75 μM [3H]Pravastatin, 1 min, neutral pH) it was 0.10 ± 0.16 pmol/mg protein/min; at OATP5A1 (OATP5A1, 10 μM pravastatin, 1 min, neutral pH), 0.23 ± 0.01 pmol/mg protein/min; on OAT4 [9] (30 s, chloride, no glutarate preload) it was 2.86 ± 0.27 pmol/mg protein/min; at OAT4 [9] (Cl-free uptake buffer, 30 s), 7.15 ± 0.59 pmol/mg protein/min; at OAT4 [9] (setting [13]), 5.17 ± 0.84 pmol/mg protein/min. For the same molecule, the “Uptake, Transporter-expressing cells” value at OATP1A2 (OATP1A2, 0.75 μM [3H]Pravastatin, 37°C, 30 s, neutral pH) is reported as 1.73 ± 0.31 pmol/mg protein/min; on OATP2B1 (OATP2B1, 0.75 μM [3H]Pravastatin, 37°C, 1 min, neutral pH) it was 0.71 ± 0.13 pmol/mg protein/min; on OATP2A1 [5] (OATP2A1, 1 μM pravastatin, 37°C, neutral pH), 0.46 ± 0.06 pmol/mg protein/min; at OATP5A1 (OATP5A1, 10 μM pravastatin, 37°C, 1 min, neutral pH), 1.85 ± 0.18 pmol/mg protein/min; on OAT4 [9] (Cl-free uptake buffer, 30 s), 8.66 ± 0.80 ^*^, # pmol/mg protein/min; at OAT4 [9] (setting [13]), 7.04 ± 0.97 ^*^, # pmol/mg protein/min. Also, at OATP1A2 (setting [10]), the “apparent Kt” value amounted to 23.6 ± 2.87 µM. For the same molecule, at OATP1A2 (setting [10]), the “apparent Vmax” value is 361 ± 29.3 pmol/mg protein*min^−1. Further, the Kt is 1.60 ± 0.97 µM at OATP1A2 (setting [11]); 188 ± 109 µM at OATP2A1 [5] (setting [12]); 257 µM in the data set with OAT4 [7]; 295 ± 99 µM and 295 ± 99.0 µM on OAT4 [9] (setting [14]); 30.5 ± 75.0 µM at OAT4 [9] (lower concentration range (high-affinity), 30 s). In addition, the Vmax on OATP1A2 (setting [11]) worked out at 4.08 ± 0.72 pmol/mg protein*min^−1; at OATP2A1 [5] (setting [12]) it was 73.8 ± 19.2 pmol/mg protein*min^−1; on OAT4 [9] (setting [14]) it was 345 ± 54.8 pmol/mg protein*min^−1; at OAT4 [9] (lower concentration range (high-affinity)), 42.0 ± 93.4 pmol/mg protein*min^−1. Further, the “Uptake, Control” value was 0.66 ± 0.15 pmol/mg protein/min on OATP1A2 (control cells for OATP1A2, 0.75 μM [3H]Pravastatin, 30 s, neutral pH); 0.61 ± 0.13 pmol/mg protein/min on OATP2B1 (control cells for OATP2B1, 0.75 μM [3H]Pravastatin, 1 min, neutral pH); 0.26 ± 0.06 pmol/mg protein/min at OATP2A1 [5] (control cells for OATP2A1, 1 μM pravastatin, neutral pH); 1.62 ± 0.18 pmol/mg protein/min on OATP5A1 (control cells for OATP5A1, 10 μM pravastatin, 1 min, neutral pH); 1.51 ± 0.24 pmol/mg protein/min on OAT4 [9] (Cl-free uptake buffer, 30 s); 1.87 ± 0.25 pmol/mg protein/min at OAT4 [9] (setting [13]). On OAT4 [4] (OAT4-expressing cells, chloride-free condition, 60 s efflux, preload 4 μM), this molecule had a remaining preloaded pravastatin of 39 ± 2%. The “estimated Ke of the pravastatin efflux” value on OAT4 [4] (chloride-free condition, OAT4-expressing cells) is reported as 2.1 ± 0.5 10^−2s^−1; at OAT4 [4] (chloride-free condition, control cells) it was 3.6 ± 2.1 10^−2s^−1; at OAT4 [4] (presence of extracellular chloride, OAT4-expressing cells) it was 2.6 ± 0.6 10^−2s^−1; at OAT4 [4] (presence of extracellular chloride, control cells) it was 3.0 ± 1.0 10^−2s^−1. On OATP2B1 (pH 7.4), the OATP2B1-mediated uptake result was “did not detect any OATP2B1-mediated uptake”. Moreover, the “glutarate-stimulated uptake into AM vesicles” value in the data set with placental AM vesicles is reported as “insignificant”. Moreover, the “net (glutarate-dependent) uptake into BM vesicles at 4°C” value with placental BM vesicles [6] (4°C, 0.5-2 μM) is reported as “negligible”. For the same molecule, the “trans-stimulatory effect of glutarate on the uptake into placental BM vesicles (increase)” value in the data set on placental BM vesicles [6] (BM vesicles, glutarate preload, Fig 1A) is recorded as 18%. Also, the “glutarate-stimulated uptake into BM vesicles” value in the data set on placental BM vesicles [6] (pravastatin concentrations below 1 μM, 37°C) was “did not detect any glutarate-stimulated uptake”. The “glutarate-stimulated uptake into BM vesicles, concentration dependence” value with placental BM vesicles [6] (two-fold increase of substrate from 1 μM to 2 μM, 37°C) is given as “proportional increase”. Further, in the data set on placenta, the “clearance index, direction of transfer” value is on record as “higher in the fetal-to-maternal direction than in the maternal-to-fetal direction”. In the data set on placenta, the “drug crossing the placenta from the maternal to fetal direction” value is reported as 18 ± 4%. Besides, the “transport by OATP5A1” value on OATP5A1 is “none of the substrates tested, namely pravastatin, E3S, PE2 and fluorescein were found to be transported”. In addition, the “steady state plasma concentrations” value in data set [8] was “nanomolar range”.
